# Measurements: patent US20250353891A1 (MEDIMMUNE LIMITED, priority 2022, published 2025)
# Starred links: 1 amine or outer side, 2 acyl side, 3 side chain; linkers in the order of their positions; H or OH if unused. Non-standard residues stand in square brackets, D forms with d. Residues, ends and D or L forms follow the SMILES beside them. Groups on a side chain read outwards from the residue. *: point of attachment. C20 diacid = O=C(O)CCCCCCCCCCCCCCCCCCC(=O)*; C18 diacid = O=C(O)CCCCCCCCCCCCCCCCC(=O)*; γGlu = O=C(O)[C@H](CCC(=O)[*:2])N[*:1]; αMeF = C[C@](N)(Cc1ccccc1)C(=O)O; PEG4 = NCCOCCOCCOCCOCCC(=O)O; AEEA = NCCOCCOCC(=O)O; Aib = CC(C)(N)C(=O)O
# Assays:
# [1] = biological target: human GLP-1 receptor (hGLP-1R) (Homo sapiens, UniProt P43220); assay: cAMP production (HTRF) in CHO cells expressing hGLP-1R; format: cell-based; set-up: expressed in transfected cells; details: for EC50: Table 7, peptides modified at position 20, cAMP in CHO hGLP-1R cells, geometric mean, read-out: hGLP-1R EC50; for % Relative Potency Ratio: Table 7, % GLP-1R activity relative to GLP-1 / % GlucR activity relative to glucagon
# Method in brief: (§1)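 Cells were resuspended in assay buffer at batch-optimized density, typically 1×10^5 cells/mL for hGLP-1R and 2×10^5 cells/mL for hGCGR. After 30 min incubation at room temperature with compound, cAMP was measured by two-step HTRF. EC50 values came from 4-parameter logistic fits of % Delta F.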
# [2] = biological target: human glucagon receptor (hGCGR) (Homo sapiens, UniProt P47871); assay: cAMP production (HTRF) in CHO cells expressing hGCGR; format: cell-based; set-up: expressed in transfected cells; details: Table 7, peptides modified at position 20; cAMP in CHO hGCGR cells; geometric mean; read-out: hGluc-R EC50
# Method in brief: as §1
# Chain of human GLP-1 receptor (hGLP-1R) (P43220 24-463): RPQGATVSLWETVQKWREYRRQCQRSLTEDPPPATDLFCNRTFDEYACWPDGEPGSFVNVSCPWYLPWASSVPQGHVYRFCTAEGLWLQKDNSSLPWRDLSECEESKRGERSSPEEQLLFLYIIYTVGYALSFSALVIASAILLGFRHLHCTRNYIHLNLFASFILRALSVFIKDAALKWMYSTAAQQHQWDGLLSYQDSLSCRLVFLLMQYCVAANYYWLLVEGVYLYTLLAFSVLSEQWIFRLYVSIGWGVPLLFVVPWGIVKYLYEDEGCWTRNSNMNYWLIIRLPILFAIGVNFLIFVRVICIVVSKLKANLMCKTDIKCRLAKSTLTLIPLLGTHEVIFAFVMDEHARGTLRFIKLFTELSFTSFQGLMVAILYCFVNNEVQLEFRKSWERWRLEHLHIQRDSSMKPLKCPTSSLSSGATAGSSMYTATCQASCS
# Chain of human glucagon receptor (hGCGR) (P47871 26-477): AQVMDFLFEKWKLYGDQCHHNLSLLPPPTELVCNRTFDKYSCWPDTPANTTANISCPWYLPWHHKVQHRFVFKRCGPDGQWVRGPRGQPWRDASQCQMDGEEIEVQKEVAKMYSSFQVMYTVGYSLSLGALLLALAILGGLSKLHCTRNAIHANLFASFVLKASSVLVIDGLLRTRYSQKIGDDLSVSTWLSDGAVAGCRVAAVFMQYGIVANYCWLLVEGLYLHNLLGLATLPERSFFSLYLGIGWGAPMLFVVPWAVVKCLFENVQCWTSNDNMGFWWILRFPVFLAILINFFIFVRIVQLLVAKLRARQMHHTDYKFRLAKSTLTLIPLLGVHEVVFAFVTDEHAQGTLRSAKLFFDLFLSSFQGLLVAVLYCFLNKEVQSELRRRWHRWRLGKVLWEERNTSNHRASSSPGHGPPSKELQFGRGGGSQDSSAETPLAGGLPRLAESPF
Compound,EC50 [1] [pM],% Relative Potency Ratio [1],EC50 [2] [pM]
CC(C)C[C@H](NC(=O)[C@H](Cc1c[nH]c2ccccc12)NC(=O)[C@H](CCC(N)=O)NC(=O)[C@@H](NC(=O)[C@H](Cc1ccccc1)NC(=O)[C@H](CC(=O)O)NC(=O)[C@H](CCCCNC(=O)COCCOCCNC(=O)COCCOCCNC(=O)CC[C@H](NC(=O)CCCCCCCCCCCCCCCCC(=O)O)C(=O)O)NC(=O)[C@H](C)NC(=O)[C@H](CCCNC(=N)N)NC(=O)[C@H](CCCNC(=N)N)NC(=O)[C@H](CO)NC(=O)[C@H](CC(=O)O)NC(=O)[C@H](CC(C)C)NC(=O)[C@](C)(Cc1ccccc1)NC(=O)[C@H](CCCCN)NC(=O)[C@H](CO)NC(=O)[C@H](Cc1ccc(O)cc1)NC(=O)[C@H](CC(=O)O)NC(=O)[C@H](CO)NC(=O)[C@@H](NC(=O)[C@H](Cc1ccccc1)NC(=O)[C@@H](NC(=O)CNC(=O)[C@H](CCC(N)=O)NC(=O)C(C)(C)NC(=O)[C@@H](N)Cc1c[nH]cn1)[C@@H](C)O)[C@@H](C)O)C(C)C)C(=O)N[C@H](C(=O)NCCOCCOCCOCCOCCC(N)=O)C(C)C [Peptide 312] (H-H[Aib]QGTFTSDYSK[αMeF]LDSRRAK([AEEA-AEEA-γGlu-C18 diacid])DFVQWLV[PEG4]-NH2; N-terminus assumed),152,36.1,2780
CC(C)C[C@H](NC(=O)[C@H](Cc1c[nH]c2ccccc12)NC(=O)[C@H](CCC(N)=O)NC(=O)[C@@H](NC(=O)[C@H](Cc1ccccc1)NC(=O)[C@H](CC(=O)O)NC(=O)[C@H](CCCCNC(=O)COCCOCCNC(=O)COCCOCCNC(=O)CC[C@H](NC(=O)CCCCCCCCCCCCCCCCC(=O)O)C(=O)O)NC(=O)[C@H](C)NC(=O)C(C)(C)NC(=O)[C@H](CCCNC(=N)N)NC(=O)[C@H](CO)NC(=O)[C@H](CC(=O)O)NC(=O)[C@H](CC(C)C)NC(=O)[C@](C)(Cc1ccccc1)NC(=O)[C@H](CCCCN)NC(=O)[C@H](CO)NC(=O)[C@@H](NC(=O)[C@H](CC(=O)O)NC(=O)[C@H](CO)NC(=O)[C@@H](NC(=O)[C@H](Cc1ccccc1)NC(=O)[C@@H](NC(=O)CNC(=O)[C@H](CCC(N)=O)NC(=O)C(C)(C)NC(=O)[C@@H](N)Cc1c[nH]cn1)[C@@H](C)O)[C@@H](C)O)C(C)C)C(C)C)C(=O)N[C@@H](CC(C)C)C(=O)N[C@@H](CC(N)=O)C(=O)N[C@H](C(=O)O)[C@@H](C)O [Peptide 313],138,17.6,1230
CC(C)C[C@H](NC(=O)C(C)(C)NC(=O)[C@H](CCC(N)=O)NC(=O)[C@@H](NC(=O)[C@H](Cc1ccccc1)NC(=O)[C@H](CC(=O)O)NC(=O)[C@H](CCCCNC(=O)COCCOCCNC(=O)COCCOCCNC(=O)CC[C@H](NC(=O)CCCCCCCCCCCCCCCCC(=O)O)C(=O)O)NC(=O)[C@H](C)NC(=O)[C@H](C)NC(=O)[C@H](CCCNC(=N)N)NC(=O)[C@H](CO)NC(=O)[C@H](CC(=O)O)NC(=O)[C@H](CC(C)C)NC(=O)[C@](C)(Cc1ccccc1)NC(=O)[C@H](CCCCN)NC(=O)[C@H](CO)NC(=O)[C@@H](NC(=O)[C@H](CC(=O)O)NC(=O)[C@H](CO)NC(=O)[C@@H](NC(=O)[C@H](Cc1ccccc1)NC(=O)[C@@H](NC(=O)CNC(=O)[C@H](CCC(N)=O)NC(=O)C(C)(C)NC(=O)[C@@H](N)Cc1c[nH]cn1)[C@@H](C)O)[C@@H](C)O)C(C)C)C(C)C)C(=O)N[C@H](C(=O)N[C@@H](C)C(=O)N[C@H](C(N)=O)[C@@H](C)O)C(C)C [Peptide 315],18.1,639.1,5850
CC[C@H](C)[C@H](NC(=O)[C@H](Cc1c[nH]c2ccccc12)NC(=O)[C@H](CCC(N)=O)NC(=O)[C@@H](NC(=O)[C@H](Cc1ccccc1)NC(=O)[C@H](CC(=O)O)NC(=O)[C@H](CCCCNC(=O)COCCOCCNC(=O)COCCOCCNC(=O)CC[C@H](NC(=O)CCCCCCCCCCCCCCCCC(=O)O)C(=O)O)NC(=O)[C@H](C)NC(=O)[C@H](C)NC(=O)[C@H](CCCNC(=N)N)NC(=O)[C@H](CO)NC(=O)[C@H](CC(=O)O)NC(=O)[C@H](CC(C)C)NC(=O)[C@](C)(Cc1ccccc1)NC(=O)[C@H](CCCCN)NC(=O)[C@H](CO)NC(=O)[C@@H](NC(=O)[C@H](CC(=O)O)NC(=O)[C@H](CO)NC(=O)[C@@H](NC(=O)[C@H](Cc1ccccc1)NC(=O)[C@@H](NC(=O)CNC(=O)[C@H](CCC(N)=O)NC(=O)[C@](C)(CO)NC(=O)[C@@H](N)Cc1c[nH]cn1)[C@@H](C)O)[C@@H](C)O)C(C)C)C(C)C)C(=O)N[C@@H](C)C(=O)N[C@@H](CC(N)=O)C(=O)N[C@H](C(N)=O)[C@@H](C)O [Peptide 318],55.2,429.7,12000
CC[C@H](C)[C@H](NC(=O)C(C)(C)NC(=O)[C@H](CCC(N)=O)NC(=O)[C@@H](NC(=O)[C@](C)(Cc1ccccc1)NC(=O)[C@H](CC(=O)O)NC(=O)[C@H](CCCCNC(=O)COCCOCCNC(=O)COCCOCCNC(=O)CC[C@H](NC(=O)CC[C@H](NC(=O)CCCCCCCCCCCCCCCCCCC(=O)O)C(=O)O)C(=O)O)NC(=O)[C@H](C)NC(=O)[C@H](C)NC(=O)[C@H](CCCNC(=N)N)NC(=O)[C@H](CO)NC(=O)[C@H](CC(=O)O)NC(=O)[C@H](CC(C)C)NC(=O)[C@](C)(Cc1ccccc1)NC(=O)[C@H](CCCCN)NC(=O)[C@H](CO)NC(=O)[C@@H](NC(=O)[C@H](CC(=O)O)NC(=O)[C@H](CO)NC(=O)[C@@H](NC(=O)[C@](C)(Cc1ccccc1)NC(=O)[C@H](CO)NC(=O)CNC(=O)[C@H](CCC(N)=O)NC(=O)C(C)(C)NC(=O)[C@@H](N)Cc1c[nH]cn1)[C@@H](C)O)C(C)C)C(C)C)C(=O)N[C@@H](C)C(=O)N[C@@H](CC(N)=O)C(=O)N[C@H](C(N)=O)[C@@H](C)O [Peptide 322] (H-H[Aib]QGS[αMeF]TSDVSK[αMeF]LDSRAAK([AEEA-AEEA-γGlu-γGlu-C20 diacid])D[αMeF]VQ[Aib]IANT-NH2),68.3,,> 24700

# More lines, now with the values ahead:
EC50 [1] [pM],% Relative Potency Ratio [1],EC50 [2] [pM],Compound
35.1,26.4,469,CC(C)C[C@H](NC(=O)[C@H](Cc1c[nH]c2ccccc12)NC(=O)[C@H](CCC(N)=O)NC(=O)[C@@H](NC(=O)[C@H](Cc1ccccc1)NC(=O)[C@H](CC(=O)O)NC(=O)[C@H](CCCCNC(=O)COCCOCCNC(=O)COCCOCCNC(=O)CC[C@H](NC(=O)CCCCCCCCCCCCCCCCC(=O)O)C(=O)O)NC(=O)[C@H](C)NC(=O)[C@H](C)NC(=O)[C@H](CCCNC(=N)N)NC(=O)[C@H](CO)NC(=O)[C@H](CC(=O)O)NC(=O)[C@H](CC(C)C)NC(=O)[C@](C)(Cc1ccccc1)NC(=O)[C@H](CCCCN)NC(=O)[C@H](CO)NC(=O)[C@@H](NC(=O)[C@H](CC(=O)O)NC(=O)[C@H](CO)NC(=O)[C@@H](NC(=O)[C@H](Cc1ccccc1)NC(=O)[C@@H](NC(=O)CNC(=O)[C@H](CCC(N)=O)NC(=O)C(C)(C)NC(=O)[C@@H](N)Cc1c[nH]cn1)[C@@H](C)O)[C@@H](C)O)C(C)C)C(C)C)C(=O)N[C@H](C(=O)N[C@@H](CCC(=O)O)C(=O)N[C@H](C(N)=O)[C@@H](C)O)C(C)C [Peptide 311]
30.8,439.3,6830,CC(C)C[C@H](NC(=O)C(C)(C)NC(=O)[C@H](CCC(N)=O)NC(=O)[C@@H](NC(=O)[C@H](Cc1ccccc1)NC(=O)[C@H](CC(=O)O)NC(=O)[C@H](CCCCNC(=O)COCCOCCNC(=O)COCCOCCNC(=O)CC[C@H](NC(=O)CCCCCCCCCCCCCCCCC(=O)O)C(=O)O)NC(=O)[C@H](C)NC(=O)C(C)(C)NC(=O)[C@H](CCCNC(=N)N)NC(=O)[C@H](CO)NC(=O)[C@H](CC(=O)O)NC(=O)[C@H](CC(C)C)NC(=O)[C@](C)(Cc1ccccc1)NC(=O)[C@H](CCCCN)NC(=O)[C@H](CO)NC(=O)[C@@H](NC(=O)[C@H](CC(=O)O)NC(=O)[C@H](CO)NC(=O)[C@@H](NC(=O)[C@H](Cc1ccccc1)NC(=O)[C@@H](NC(=O)CNC(=O)[C@H](CCC(N)=O)NC(=O)C(C)(C)NC(=O)[C@@H](N)Cc1c[nH]cn1)[C@@H](C)O)[C@@H](C)O)C(C)C)C(C)C)C(=O)N[C@H](C(=O)N[C@@H](C)C(=O)N[C@H](C(N)=O)[C@@H](C)O)C(C)C [Peptide 314] (H-H[Aib]QGTFTSDVSK[αMeF]LDSR[Aib]AK([AEEA-AEEA-γGlu-C18 diacid])DFVQ[Aib]LVAT-NH2; N-terminus assumed)
22.6,384.7,4400,CC[C@H](C)[C@H](NC(=O)C(C)(C)NC(=O)[C@H](CCC(N)=O)NC(=O)[C@@H](NC(=O)[C@](C)(Cc1ccccc1)NC(=O)[C@H](CC(=O)O)NC(=O)[C@H](CCCCNC(=O)COCCOCCNC(=O)COCCOCCNC(=O)CC[C@H](NC(=O)CCCCCCCCCCCCCCCCC(=O)O)C(=O)O)NC(=O)[C@H](C)NC(=O)[C@H](C)NC(=O)[C@H](CCCNC(=N)N)NC(=O)[C@H](CO)NC(=O)[C@H](CC(=O)O)NC(=O)[C@H](CC(C)C)NC(=O)[C@](C)(Cc1ccccc1)NC(=O)[C@H](CCCCN)NC(=O)[C@H](CO)NC(=O)[C@@H](NC(=O)[C@H](CC(=O)O)NC(=O)[C@H](CO)NC(=O)[C@@H](NC(=O)[C@](C)(Cc1ccccc1)NC(=O)[C@H](CO)NC(=O)CNC(=O)[C@H](CCC(N)=O)NC(=O)C(C)(C)NC(=O)[C@@H](N)Cc1c[nH]cn1)[C@@H](C)O)C(C)C)C(C)C)C(=O)N[C@@H](C)C(=O)N[C@@H](CC(N)=O)C(=O)N[C@H](C(N)=O)[C@@H](C)O [Peptide 321] (H-H[Aib]QGS[αMeF]TSDVSK[αMeF]LDSRAAK([AEEA-AEEA-γGlu-C18 diacid])D[αMeF]VQ[Aib]IANT-NH2)
